Holding throughout (assay): inhibition of tumour cell growth, NCI panel, 48 h
The test system of test [1] is HOP-18.
Test [2] concerns RXF 631.
For test [3], the system named is M19-MEL.
Test [4] concerns DMS-273.
Test [5] relates to DLD-1.
Test [6] deals with SNB-78.
Test [7] concerns LXFL 529.
Test [8] concerns KM-20L2.
Test [9] has as its system XF498.

Molecules are shown by their SMILES.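 Five compound concentrations were applied to cells in 96-well plates for 48 hours; endpoints were derived by simple linear interpolation of the resulting dose-response curve. The concentration for 50% growth inhibition is given as GI50.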 Activity calls are given as the source filed them. No stated cut-off is given here; in the data, active = GI50 up to about 1.1 µM and inactive = higher.

As for `Cc1cccc(C)c1N1C(=O)C(=O)C(c2nc3ccccc3s2)/C(=N\N)C1=O` (centres undefined), the GI50 in test [1] was 49.7 µM (inactive); in test [2] it was > 100 µM (inactive); in test [3], > 100 µM (inactive); in test [4], > 100 µM (inactive); in test [5], > 100 µM (inactive); in [6], > 100 µM (inactive). The GI50 in [7] was 40.8 µM (inactive); in test [8], > 100 µM (inactive).
As to `CN(C)CCC[N+]1=Nc2cccc3cccc(c23)N1`, the GI50 in [1] is > 100 µM (inactive); in test [2] it was > 100 µM (inactive); in test [3], 48.2 µM (inactive); in test [4] it was 18.8 µM (inactive); in test [9], > 100 µM (inactive); in test [5], 17.5 µM (inactive). Also, the GI50 in [6] was > 100 µM (inactive); in test [7] it was 49.8 µM (inactive); in test [8], 23.7 µM (inactive).
For `CCOC(=O)C1N(S(=O)(=O)c2ccc(C)cc2)CCC12c1ccccc1NC2c1ccc(OC)c(OC)c1` (centres undefined), the GI50 in test [3] was > 100 µM (inactive); in [4], > 100 µM (inactive); in test [9] it was 79.8 µM (inactive); in test [5], > 100 µM (inactive); in test [6], > 100 µM (inactive); in [7], > 100 µM (inactive). Also, in test [8], the GI50 is > 100 µM (inactive).
As to `CC(C)(C)C1=CC(=C2C(=O)C(=O)c3ccccc3C2=O)C=C(C(C)(C)C)C1=O`, the GI50 is 36.2 µM (inactive) in test [1]; 75.3 µM (inactive) in [3]; 59.8 µM (inactive) in test [4]; 36.6 µM (inactive) in test [5]; > 100 µM (inactive) in test [6]; 26.9 µM (inactive) in [7]. The GI50 in test [8] was > 100 µM (inactive).
`Cc1nc2cc(N)c(F)cc2[nH]1`: the GI50 in [3], in test [4], in test [9], in [5], in test [6] and in [7] was > 100 µM (inactive) in each case.
With `O=C1C=C(O)C(=Cc2c(O)cc(O)cc2O)C(O)=C1`, the GI50 in [1], in [2], in test [3], in test [4], in test [9] and in test [5] was > 100 µM (inactive) each time. For the same compound, the GI50 in test [6], in [7] and in [8] was > 100 µM (inactive) in each case.
As to `CCCC(=O)C(CC)/C(CCC(=O)N(Cc1ccccc1)Cc1ccccc1)=N/NC(=O)C[N+](C)(C)C` (centres undefined), the GI50 in test [1] is > 100 µM (inactive); in test [3], > 100 µM (inactive); in test [4], > 100 µM (inactive); in test [9] it was 65.2 µM (inactive); in test [5], > 100 µM (inactive); in test [6], > 100 µM (inactive). The GI50 in test [7] and in test [8] was > 100 µM (inactive) in each case.
With `CC(C)=CC(=O)CC(=O)C(=O)NCCNC(=O)C(=O)CC(=O)C=C(C)C`, the GI50 in [1], in test [3], in test [4], in [9], in [5] and in [6] was > 50 µM (inactive) in each case. Besides, the GI50 in test [7] and in test [8] was > 50 µM (inactive) each time.
As to `O=C1C/C(Br)=C\c2ccccc2-c2ccccc21`, the GI50 in test [1] was 4.48 µM (inactive); in test [3] it was 1.87 µM (inactive); in test [4], 2.19 µM (inactive); in test [9], 1.76 µM (inactive); in test [5], 1.11 µM (active); in test [6], 3.85 µM (inactive). Besides, the GI50 in test [7] is 1.73 µM (inactive); in test [8], 2.84 µM (inactive).
As to `O=C(CCC(=O)Nc1ccc(Cl)cc1)CC(=O)c1ccc2ccccc2c1`, the GI50 in [1], in test [2], in test [3], in [4], in test [5] and in test [6] was > 100 µM (inactive) each time. The GI50 in test [7] and in test [8] was > 100 µM (inactive) in each case.
As to `CCOC(=O)C(OCC1CC=CCC1)Sc1ccccc1` (centres undefined), the GI50 in test [1], in test [3], in test [4], in test [5], in [6] and in [7] was > 100 µM (inactive) throughout. In test [8], the GI50 is > 100 µM (inactive).
For `C#Cc1ccccc1N1C(=O)C=CC1=O`, the GI50 in [3], in test [5], in [6], in test [7] and in [8] was > 100 µM (inactive) in each case.
As to `COC(=O)c1nn(-c2ccccc2)c(=O)cc1N=[N+]=[N-]`, the GI50 in test [3], in test [4], in test [9], in [6], in test [7] and in test [8] was > 100 µM (inactive) throughout.
Consider `O=C(Nc1nc2ncn(CCO)c2c(=S)[nH]1)c1ccccc1`, for which the GI50 in [1] is > 100 µM (inactive); in test [2] it was > 10 µM (inactive); in [3], > 100 µM (inactive); in test [4], > 100 µM (inactive); in test [9], > 100 µM (inactive); in test [5], > 100 µM (inactive). For the same compound, the GI50 in test [6], in test [7] and in [8] was > 100 µM (inactive) throughout.
With `O=C1NC2=C(CCCCC/C2=N\O)C12CCCCCC2`, the GI50 in [1], in [3], in test [4], in test [9], in test [5] and in test [6] was > 100 µM (inactive) throughout. In addition, in test [7], the GI50 was > 100 µM (inactive).
Take `C/C(=C1/CCCC2(N=NCC2c2ccccc2)C1=O)c1ccccc1` (centres undefined): the GI50 was 51.1 µM (inactive) in test [1]; 22.3 µM (inactive) in [3]; 15.9 µM (inactive) in test [4]; 17.4 µM (inactive) in test [9]; 38.3 µM (inactive) in test [5]; 25.4 µM (inactive) in test [6]. In addition, the figures for the GI50 in [7] and in test [8] were 17.3 µM (inactive) and 25.6 µM (inactive), respectively.
`Cc1ccccc1Cn1nc2ccccc2cc1=O`: the GI50 in test [1], in [3], in test [4], in [9], in test [5] and in [6] was > 100 µM (inactive) each time. Also, in test [8], the GI50 is > 100 µM (inactive).
For the compound `C/C(=N\NC(N)=S)c1ccc(C)cc1C`, the GI50 in [1] was > 100 µM (inactive); in test [2], 91 µM (inactive); in test [3] it was 36.9 µM (inactive); in test [4], > 100 µM (inactive); in test [9], 43.1 µM (inactive); in test [5], 56.8 µM (inactive). Besides, the values for the GI50 in test [6], in test [7] and in [8] were > 100 µM (inactive), 39.1 µM (inactive) and > 100 µM (inactive), respectively.
As for `C1OC1CN1CCN(CC2CO2)CC1` (centres undefined), the GI50 in test [1] is 66.7 µM (inactive); in test [3], > 100 µM (inactive); in test [4], 16.1 µM (inactive); in test [9] it was > 100 µM (inactive); in test [5] it was > 100 µM (inactive); in test [6] it was > 100 µM (inactive). Besides, the GI50 in [7] and in test [8] was > 100 µM (inactive) throughout.
On to `Nc1ccc2n[se]nc2c1`, for which the GI50 in test [1], in test [2], in [3], in test [4], in test [9] and in test [5] was > 100 µM (inactive) each time. Besides, the GI50 in test [6], in test [7] and in test [8] was > 100 µM (inactive) in each case.
With `OCCSCC/C(=N\N=C(/CCSCCO)c1ccccc1)c1ccccc1`, the GI50 in test [1] is > 100 µM (inactive); in test [2] it was 65.8 µM (inactive); in [3], > 100 µM (inactive); in [9] it was 69.2 µM (inactive); in [5], > 100 µM (inactive); in test [6] it was > 100 µM (inactive). Further, the results for the GI50 in test [7] and in [8] were 82 µM (inactive) and 49.9 µM (inactive), respectively.
Take `CC(C)C(=O)N[C@@H](C)C(=O)N(Cc1ccc2ccccc2c1)N=O`: the GI50 in test [1] was 0.057 µM (active); in test [3], 97.7 µM (inactive); in test [4] it was 28.8 µM (inactive); in test [9] it was > 100 µM (inactive); in test [5], > 100 µM (inactive); in test [6], > 100 µM (inactive). Moreover, the figures for the GI50 in [7] and in test [8] were 71.9 µM (inactive) and > 100 µM (inactive), respectively.
`CC(C)NC(C)C(C)c1ccccc1` (centres undefined): the GI50 in test [3], in [4], in [9], in [5], in test [7] and in test [8] was > 100 µM (inactive) throughout.
Turning to `O=C1C=C2CCCC2C(C(=O)O)(C(=O)O)C1` (centres undefined), the GI50 in test [2], in test [3], in test [4], in test [9], in [5] and in test [6] was > 100 µM (inactive) in each case. In addition, the GI50 in test [7] was > 100 µM (inactive).
`COC1[C@H](NC(=O)OC(C)(C)C)C(=O)N1Cc1ccccc1` (some centres undefined): the GI50 in test [3], in test [4], in test [9], in test [5], in test [6] and in [7] was > 100 µM (inactive) each time. Besides, the GI50 in [8] was > 100 µM (inactive).

The values above are taken from ChEMBL document CHEMBL1201862, “PubChem BioAssay data set” (2004).
